Target: T1, SIRT1 (Homo sapiens, UniProt Q96EB6)
T1 sequence (Q96EB6 1-747): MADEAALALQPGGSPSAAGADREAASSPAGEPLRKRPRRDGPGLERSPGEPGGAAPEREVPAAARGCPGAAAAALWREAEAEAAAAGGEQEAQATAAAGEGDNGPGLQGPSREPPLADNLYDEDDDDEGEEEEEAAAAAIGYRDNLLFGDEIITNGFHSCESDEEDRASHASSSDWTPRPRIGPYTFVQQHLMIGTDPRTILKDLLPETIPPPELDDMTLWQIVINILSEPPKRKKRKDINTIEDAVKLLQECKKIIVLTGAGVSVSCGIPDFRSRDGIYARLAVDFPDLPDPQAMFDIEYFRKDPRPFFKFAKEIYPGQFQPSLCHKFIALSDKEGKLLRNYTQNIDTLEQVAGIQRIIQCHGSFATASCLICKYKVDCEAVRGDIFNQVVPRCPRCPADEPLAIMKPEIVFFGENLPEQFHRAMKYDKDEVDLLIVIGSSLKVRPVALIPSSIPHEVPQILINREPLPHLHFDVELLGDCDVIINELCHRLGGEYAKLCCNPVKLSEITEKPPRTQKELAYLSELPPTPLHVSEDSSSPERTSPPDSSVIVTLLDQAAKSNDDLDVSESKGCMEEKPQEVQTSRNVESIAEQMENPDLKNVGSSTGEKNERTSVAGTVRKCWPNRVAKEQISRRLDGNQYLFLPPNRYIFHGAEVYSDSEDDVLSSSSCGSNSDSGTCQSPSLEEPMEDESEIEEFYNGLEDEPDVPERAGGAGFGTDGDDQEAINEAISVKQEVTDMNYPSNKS
Test: Trp mass spectrometry assay of SIRT1 activation
Type: biochemical
Details: Trp peptide Ac-R-H-K-K(Ac)-W-NH2 0.5 μM, 120 μM βNAD+, 10 nM SIRT1, 25 min, 25° C.
Description: Mass spectrometry based assays were used to identify modulators of SIRT1 activity. […] The peptide was labeled with the fluorophore 5TMR (excitation 540 nm/emission 580 nm) at the C-terminus. The sequence of the peptide substrate was based on p53 with several modifications. In addition, the methionine residue naturally present in the sequence was replaced with the norleucine because the methionine may be susceptible to oxidation during synthesis and purification.
The Trp mass spectrometry assay was conducted as follows. […] The SIRT1 protein was obtained by cloning the SirT1 gene into a T7-promoter containing vector, which was then expressed in BL21(DE3) bacterial cells and purified as described in further detail below. Test compound was added at varying concentrations to this reaction mixture and the resulting reactions were monitored. After the 25 minute incubation with SIRT1, 10 μL of 10% formic acid was added to stop the reaction. The resulting reactions were sealed and frozen for later mass spec analysis. The relative SIRT1 activity was then determined by measuring the amount of O-acetyl-ADP-ribose (OAADPR) formed (or, alternatively, the amount of deacetylated Trp peptide generated) by the NAD-dependent sirtuin deacetylation reaction in the presence of varying concentrations of the test compound versus control reactions lacking the test compound.
The degree to which the test agent activated deacetylation by SIRT1 was expressed as EC1.5 (i.e., the concentration of compound required to increase SIRT1 activity by 50% over the control lacking test compound), and Percent Maximum Activation (i.e., the maximum activity relative to control (100%) obtained for the test compound).
This time point was the same as that used for test compounds and, within the linear range, the endpoint represents a change in velocity.
For the above assay, SIRT1 protein was expressed and purified as follows. The SirT1 gene was cloned into a T7-promoter containing vector and transformed into BL21(DE3). The protein was expressed by induction with 1 mM IPTG as an N-terminal His-tag fusion protein at 18° C. overnight and harvested at 30,000×g. Cells were lysed with lysozyme in lysis buffer (50 mM Tris-HCl, 2 mM Tris[2-carboxyethyl]phosphine (TCEP), 10 μM ZnCl2, 200 mM NaCl) and further treated with sonication for 10 min for complete lysis. The protein was purified over a Ni-NTA column (Amersham) and fractions containing pure protein were pooled, concentrated and run over a sizing column (Sephadex S200 26/60 global). The peak containing soluble protein was collected and run on an Ion-exchange column (MonoQ). Gradient elution (200 mM-500 mM NaCl) yielded pure protein. This protein was concentrated and dialyzed against dialysis buffer (20 mM Tris-HCl, 2 mM TCEP) overnight. The protein was aliquoted and frozen at −80° C. until further use.
“NT” means not tested; “ND” means not determinable.

| Structure (SMILES) | TRP Activity (EC1.5, concentration of compound required to increase SIRT1 activity by 50% over control) | TRP MAX RESP (percent maximum fold activation relative to control) |
| --- | --- | --- |
| Cc1nc(C(=O)N[C@H](C)C(F)(F)F)nc2c1N1CC[C@@H](C1)N2C(=O)Nc1cc(OC[C@H](O)CO)ccn1 [Example 1, (8S)—N9-(4-((R)-2,3-dihydroxypropoxy)pyridin-2-yl)-4-methyl-N2-((R)-1,1,1-trifluoropropan-2-yl)-7,8-dihydro-5,8-methanopyrimido[4,5-b][1,4]diazepine-2,9(6H)-dicarboxamide] | A (EC1.5<1 μM) | A (Fold activation ≥150%) |
| Cn1cccc(NC(=O)N2c3nc(C(=O)NCC(F)(F)F)ncc3N3CC[C@H]2C3)c1=O [Example 2, (8S)—N9-(1-methyl-2-oxo-1,2-dihydropyridin-3-yl)-N2-(2,2,2-trifluoroethyl)-7,8-dihydro-5,8-methanopyrimido[4,5-b][1,4]diazepine-2,9(6H)-dicarboxamide] | B (EC1.5 1-25 μM) | A (Fold activation ≥150%) |
| O=C(Nc1ccccn1)N1c2nc(-c3cccc(C(F)(F)F)c3)ncc2N2CC[C@H]1C2 [Example 3, (8S)—N-(pyridin-2-yl)-2-(3-(trifluoromethyl)phenyl)-7,8-dihydro-5,8-methano pyrimido[4,5-b][1,4]diazepine-9(6H)-carboxamide] |  | A (Fold activation ≥150%) |
| Cc1ccc(-c2ncc3c(n2)N(C(=O)Nc2ccccn2)[C@H]2CCN3C2)cn1 [Example 4, (8S)-2-(6-methylpyridin-3-yl)-N-(pyridin-2-yl)-7,8-dihydro-5,8-methanopyrimido[4,5-b][1,4]diazepine-9(6H)-carboxamide] | B (EC1.5 1-25 μM) |  |
| Cc1ccc(-c2ncc3c(n2)N(C(=O)Nc2cccnc2)[C@H]2CCN3C2)cn1 [Example 5, (8S)-2-(6-methylpyridin-3-yl)-N-(pyridin-3-yl)-7,8-dihydro-5,8-methanopyrimido[4,5-b][1,4]diazepine-9(6H)-carboxamide] | B (EC1.5 1-25 μM) | A (Fold activation ≥150%) |
| Cc1cc(-c2ncc3c(n2)N(C(=O)Nc2cccnc2)[C@H]2CCN3C2)ccn1 [Example 6, (8S)-2-(2-methylpyridin-4-yl)-N-(pyridin-3-yl)-7,8-dihydro-5,8-methano pyrimido[4,5-b][1,4]diazepine-9(6H)-carboxamide] | B (EC1.5 1-25 μM) | A (Fold activation ≥150%) |
| Cc1ccc(-c2nc(C)c3c(n2)N(C(=O)Nc2cccnc2)[C@H]2CCN3C2)cn1 [Example 7, (8S)-4-methyl-2-(6-methylpyridin-3-yl)-N-(pyridin-3-yl)-7,8-dihydro-5,8-methanopyrimido[4,5-b][1,4]diazepine-9(6H)-carboxamide] | B (EC1.5 1-25 μM) | A (Fold activation ≥150%) |
| Cc1cc(-c2ncc3c(n2)N(C(=O)Nc2ccccn2)[C@H]2CCN3C2)ccn1 [Example 8, (8S)-2-(2-methylpyridin-4-yl)-N-(pyridin-2-yl)-7,8-dihydro-5,8-methanopyrimido[4,5-b][1,4]diazepine-9(6H)-carboxamide] | B (EC1.5 1-25 μM) |  |
| O=C(Nc1ccnc(O[C@@H]2CCOC2)n1)N1c2nc(-c3cccc(C(F)(F)F)c3)ncc2N2CC[C@H]1C2 [Example 14, (8S)—N-(2-(((R)-tetrahydrofuran-3-yl)oxy)pyrimidin-4-yl)-2-(3-(trifluoromethyl)phenyl)-7,8-dihydro-5,8-methanopyrimido[4,5-b][1,4]diazepine-9(6H)-carboxamide] | B (EC1.5 1-25 μM) | A (Fold activation ≥150%) |

Other lines, results leading:

| TRP Activity (EC1.5, concentration of compound required to increase SIRT1 activity by 50% over control) | TRP MAX RESP (percent maximum fold activation relative to control) | Structure (SMILES) |
| --- | --- | --- |
| A (EC1.5<1 μM) | A (Fold activation ≥150%) | Cc1ccc2c(NC(=O)N3c4nc(C(=O)NC(CO)C(F)(F)F)ncc4N4CCC[C@H]3C4)n[nH]c2n1 (single isomer, unassigned) [Example 66] |
| B (EC1.5 1-25 μM) | A (Fold activation ≥150%) | Cc1ccc2c(NC(=O)N3c4nc(C(=O)NC(CO)C(F)(F)F)ncc4N4CCC[C@H]3C4)n[nH]c2n1 (single isomer, unassigned) [Example 68] |
| B (EC1.5 1-25 μM) |  | CN(C)c1ccc(-c2ncc3c(n2)N(C(=O)Nc2ccccn2)[C@H]2CCN3C2)cn1 [Example 9, (8S)-2-(6-(dimethylamino)pyridin-3-yl)-N-(pyridin-2-yl)-7,8-dihydro-5,8-methanopyrimido[4,5-b][1,4]diazepine-9(6H)-carboxamide] |
| B (EC1.5 1-25 μM) | A (Fold activation ≥150%) | Cc1cc(-c2nc(C)c3c(n2)N(C(=O)Nc2ccccn2)[C@H]2CCN3C2)ccn1 [Example 10, (8S)-4-methyl-2-(2-methylpyridin-4-yl)-N-(pyridin-2-yl)-7,8-dihydro-5,8-methanopyrimido[4,5-b][1,4]diazepine-9(6H)-carboxamide] |
| B (EC1.5 1-25 μM) |  | CN(C)c1cc(-c2ncc3c(n2)N(C(=O)Nc2ccccn2)[C@H]2CCN3C2)ccn1 [Example 11, (8S)-2-(2-(dimethylamino)pyridin-4-yl)-N-(pyridin-2-yl)-7,8-dihydro-5,8-methano pyrimido[4,5-b][1,4]diazepine-9(6H)-carboxamide] |
| B (EC1.5 1-25 μM) | A (Fold activation ≥150%) | Cc1ccc(-c2nc(C)c3c(n2)N(C(=O)Nc2ccccn2)[C@H]2CCN3C2)cn1 [Example 12, (8S)-4-methyl-2-(6-methylpyridin-3-yl)-N-(pyridin-2-yl)-7,8-dihydro-5,8-methanopyrimido[4,5-b][1,4]diazepine-9(6H)-carboxamide] |
| A (EC1.5<1 μM) | A (Fold activation ≥150%) | O=C(NC1CC1)N1c2nc(-c3cccc(C(F)(F)F)c3)ncc2N2CC[C@H]1C2 [Example 15, (8S)—N-cyclopropyl-2-(3-(trifluoromethyl)phenyl)-7,8-dihydro-5,8-methanopyrimido[4,5-b][1,4]diazepine-9(6H)-carboxamide] |
| B (EC1.5 1-25 μM) | A (Fold activation ≥150%) | O=C(Nc1cc(OC[C@H](O)CO)ncn1)N1c2nc(-c3cccc(C(F)(F)F)c3)ncc2N2CC[C@H]1C2 [Example 16, (8S)—N-(6-((R)-2,3-dihydroxypropoxy)pyrimidin-4-yl)-2-(3-(trifluoromethyl)phenyl)-7,8-dihydro-5,8-methanopyrimido[4,5-b][1,4]diazepine-9(6H)-carboxamide] |

Reference: patent publication US20180319810A1, “SUBSTITUTED BRIDGED UREA ANALOGS AS SIRTUIN MODULATORS” (GlaxoSmithKline Intellectual Property (No.2) Limited, priority 2014, published 2018)
